Experimental data taken from patent US20240150321A1, “PYRAZOLYLSULFONAMIDE COMPOUNDS AND THEIR USE IN THERAPY” (HOTSPOT THERAPEUTICS, INC., priority 2022, published 2024).
Like-named read-outs stand apart in the source and are kept apart here.

Tests used:
Avi-tagged FL MALT-1 = Avi-tagged FL MALT-1 (Homo sapiens (Human), UniProt Q9UDY8); experiment: MALT-1 Fluorogenic Peptide Cleavage Assay (MALT1 inhibition assay); type: biochemical; details: Ac-LRSR-AMC peptide substrate, 30 min pre-incubation, 90 min reaction at room temperature
Sequence of Avi-tagged FL MALT-1 (Q9UDY8 whole entry): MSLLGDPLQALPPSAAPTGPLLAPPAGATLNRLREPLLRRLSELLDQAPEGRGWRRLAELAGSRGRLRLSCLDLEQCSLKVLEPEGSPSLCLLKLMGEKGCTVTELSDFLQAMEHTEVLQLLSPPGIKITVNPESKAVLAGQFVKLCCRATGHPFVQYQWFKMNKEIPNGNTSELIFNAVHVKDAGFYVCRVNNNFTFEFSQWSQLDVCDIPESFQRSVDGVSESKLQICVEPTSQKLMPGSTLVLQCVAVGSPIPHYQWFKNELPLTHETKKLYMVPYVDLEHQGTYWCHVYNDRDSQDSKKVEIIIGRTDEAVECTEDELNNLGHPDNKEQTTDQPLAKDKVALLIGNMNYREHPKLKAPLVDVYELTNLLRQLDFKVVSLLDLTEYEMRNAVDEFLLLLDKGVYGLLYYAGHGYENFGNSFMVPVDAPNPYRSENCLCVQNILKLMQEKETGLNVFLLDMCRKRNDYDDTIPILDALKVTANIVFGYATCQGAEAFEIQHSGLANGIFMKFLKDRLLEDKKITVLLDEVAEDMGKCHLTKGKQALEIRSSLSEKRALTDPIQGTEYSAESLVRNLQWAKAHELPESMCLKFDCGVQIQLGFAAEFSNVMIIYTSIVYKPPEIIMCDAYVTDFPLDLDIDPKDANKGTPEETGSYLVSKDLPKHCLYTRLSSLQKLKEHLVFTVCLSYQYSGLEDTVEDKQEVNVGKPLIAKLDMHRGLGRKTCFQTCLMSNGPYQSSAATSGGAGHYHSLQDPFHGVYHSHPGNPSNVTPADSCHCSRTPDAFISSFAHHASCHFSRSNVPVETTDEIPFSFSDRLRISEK
Outline: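 Cleavage of Ac-LRSR-AMC, read as fluorescence at 342/441 nm after 90 min at room temperature, with substrate working stocks of 50 μM (Km) or 280 μM (10×Km). Enzyme, Avi-tagged full-length MALT-1 (40 nM stock), was first pre-incubated 30 min with compound in citrate/HEPES pH 6.89 buffer with TCEP, EDTA, CHAPS and 2% DMSO; IC50 fitted from normalised % inhibition.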

[1] = test system: NF-kB reporter in Jurkat cells; experiment: NF-kB reporter assay in Jurkat cells stimulated with aCD3/aCD28/PMA; type: cell-based; details: Jurkat cells, 1 hr compound pre-incubation, aCD3/aCD28/PMA stimulation 4 hr, One-Glo readout, read-out: NF-kB Reporter Assay IC50
Outline: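 Luminescence (One-Glo) from the NF-kB reporter yielded IC50 values. Stimulation lasted 4 h at 37° C with aCD3, aCD28 and PMA (final 5, 5 and 0.03 […]), after 1 h compound pre-exposure of 25,000 Jurkat cells per well in serum-free RPMI.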

Row | IC50 (Avi-tagged FL MALT-1) | IC50 [1] | IC50 ([1]; Homo sapiens) | Compound
1 | ≤ 0.4 µM | < 0.4 µM | – | COc1ccc2cnn(C)c2c1NS(=O)(=O)c1cnn(-c2cc(C(C)OC)ccn2)c1 (single isomer, unassigned) [Compound I-291, N-(6-methoxy-1-methyl-1H-indazol-7-yl)-1-(4-(1-methoxyethyl)pyridin-2-yl)-1H-pyrazole-4-sulfonamide]
2 | > 2.5 µM | – | < 0.4 µM | Cn1ncc2cccc(NS(=O)(=O)c3cnn(-c4cc(N5CCOC5=O)ccn4)c3)c21 [Compound I-282, N-(1-methyl-1H-indazol-7-yl)-1-(4-(2-oxooxazolidin-3-yl)pyridin-2-yl)-1H-pyrazole-4-sulfonamide]
3 | > 2.5 µM | – | > 2.5 µM | O=S(=O)(c1cnn(-c2cc(C(F)(F)F)ccn2)c1)N1CCCc2ccc3cn[nH]c3c21 [Compound I-393, 9-((1-(4-(trifluoromethyl)pyridin-2-yl)-1H-pyrazol-4-yl)sulfonyl)-6,7,8,9-tetrahydro-1H-pyrazolo[4,3-h]quinoline]
4 | > 2.5 µM | – | 0.4 to 1 µM | Cn1ncc2cccc(NS(=O)(=O)c3cnn(-c4cc(C5(O)CCOCC5)ccn4)c3)c21 [Compound I-129, 1-(4-(4-hydroxytetrahydro-2H-pyran-4-yl)pyridin-2-yl)-N-(1-methyl-1H-indazol-7-yl)-1H-pyrazole-4-sulfonamide]
5 | > 2.5 µM | – | < 0.4 µM | Cn1ncc2cccc(NS(=O)(=O)c3cnn(-c4cc([C@]5(O)C[C@H](C)C5)ccn4)c3)c21 [Compound I-288, 1-(4-((1r,3r)-1-hydroxy-3-methyl-cyclobutyl)pyridin-2-yl)-N-(1-methyl-1H-indazol-7-yl)-1H-pyrazole-4-sulfonamide]
6 | > 2.5 µM | – | 0.4 to 1 µM | Cn1ncc2cccc(NS(=O)(=O)c3cnn(-c4cnn5c4COCCC5)c3)c21 [Compound I-447, 1-(7,8-Dihydro-4H,6H-Pyrazolo[5,1-C][1,4]Oxazepin-3-yl)-N-(1-Methyl-1H-Indazol-7-yl)-1H-Pyrazole-4-Sulfonamide]
7 | > 2.5 µM | – | 0.4 to 1 µM | COc1ccc2cnn(C)c2c1NS(=O)(=O)c1cnn(-c2cc(N3CC(C#N)C3)ccn2)c1 [Compound I-454]
8 | ≤ 0.4 µM | – | < 0.4 µM | CCc1ccc2[nH]nc(C)c2c1NS(=O)(=O)c1cnn(-c2ccnc(C(F)(F)F)c2)c1 [Compound I-39, N-(5-Ethyl-3-Methyl-1H-Indazol-4-yl)-1-(2-(Trifluoromethyl) Pyridin-4-yl)-1H-Pyrazole-4-Sulfonamide]
9 | > 2.5 µM | – | > 2.5 µM | CN1CCn2ncc(-n3cc(S(=O)(=O)Nc4cccc5cnn(C)c45)cn3)c2C1 [Compound I-466, 1-{5-methyl-4H,6H,7H-pyrazolo[1,5-a]pyrazin-3-yl}-N-(1-methylindazol-7-yl)pyrazole-4-sulfonamide]
10 | ≤ 0.4 µM | – | < 0.4 µM | COc1ncc2cnn(C)c2c1NS(=O)(=O)c1cnn(-c2cc(C(F)F)ccn2)c1 [Compound I-126, 1-[4-(difluoromethyl)pyridin-2-yl]-N-{6-methoxy-1-methylpyrazolo[4,3-c]pyridin-7-yl}pyrazole-4-sulfonamide]
11 | > 2.5 µM | – | < 0.4 µM | CC[C@@H](OC)c1ccnc(-n2cc(S(=O)(=O)Nc3cccc4cnn(C)c34)cn2)c1 [Compound I-298]
12 | ≤ 0.4 µM | < 0.4 µM | – | COc1ccc2cnn(C)c2c1NS(=O)(=O)c1cnn(-c2cc(C(C)O)ccn2)c1 (centres unmarked) [Compound I-339, 1-(4-(1-hydroxyethyl)pyridin-2-yl)-N-(6-methoxy-1-methyl-1H-indazol-7-yl)-1H-pyrazole-4-sulfonamide]
13 | > 2.5 µM | – | > 2.5 µM | CN1CCC[C@H](n2cc(S(=O)(=O)Nc3cccc4cnn(C)c34)cn2)C1 [Compound I-309]
14 | ≤ 0.4 µM | – | < 0.4 µM | COc1ccc2cnn(C)c2c1NS(=O)(=O)c1cnn(-c2cc(C(C)(C)C)ccn2)c1 [Compound I-115, 1-(4-(tert-butyl)pyridin-2-yl)-N-(6-methoxy-1-methyl-1H-indazol-7-yl)-1H-pyrazole-4-sulfonamide]
15 | ≤ 0.4 µM | – | < 0.4 µM | CCc1ccc2cnn(C)c2c1NS(=O)(=O)c1cnn(-c2cc(C(C)(C)O)ccn2)c1 [Compound I-274, N-(6-ethyl-1-methyl-1H-indazol-7-yl)-1-(4-(2-hydroxypropan-2-yl)pyridin-2-yl)-1H-pyrazole-4-sulfonamide]
16 | > 2.5 µM | – | < 0.4 µM | COCC(C)(C)c1ccnc(-n2cc(S(=O)(=O)Nc3cccc4cnn(C)c34)cn2)c1 [Compound I-481, 1-(4-(1-methoxy-2-methylpropan-2-yl)pyridin-2-yl)-N-(1-methyl-1H-indazol-7-yl)-1H-pyrazole-4-sulfonamide]
17 | ≤ 0.4 µM | – | < 0.4 µM | COc1ccc2cnn(C)c2c1NS(=O)(=O)c1cnn(-c2cc(C(F)(F)F)ccn2)c1C [Compound I-84, N-(6-Methoxy-1-Methyl-1H-Indazol-7-yl)-5-Methyl-1-(4-(Trifluoromethyl)Pyridin-2-yl)-1H-Pyrazole-4-Sulfonamide]

Row | IC50 (Avi-tagged FL MALT-1) | IC50 [1] | IC50 ([1]; Homo sapiens) | Compound
18 | ≤ 0.4 µM | – | < 0.4 µM | [2H]C([2H])([2H])Oc1ccc2cnn(C([2H])([2H])[2H])c2c1NS(=O)(=O)c1cnn(-c2cc(C(F)(F)F)ccn2)c1 [Compound I-476, N-(6-(methoxy-d3)-1-(methyl-d3)-1H-indazol-7-yl)-1-(4-(trifluoromethyl)pyridin-2-yl)-1H-pyrazole-4-sulfonamide]
19 | 0.4 to 1 µM | – | < 0.4 µM | COc1ccc2cnn(C)c2c1NS(=O)(=O)c1cnn(-c2cc(C3(F)CC(F)C3)ccn2)c1 (single isomer, unassigned) [Compound I-377, 1-(4-(1,3-difluorocyclobutyl)pyridin-2-yl)-N-(6-methoxy-1-methyl-1H-indazol-7-yl)-1H-pyrazole-4-sulfonamide]
20 | > 2.5 µM | – | 0.4 to 1 µM | COC[C@H](O)c1ccnc(-n2cc(S(=O)(=O)Nc3cccc4cnn(C)c34)cn2)c1 [Compound I-305]
21 | > 2.5 µM | – | < 0.4 µM | COc1ccc2cnn(C)c2c1NS(=O)(=O)c1cnn(-c2cc(N3CC[C@H](C)C3)ccn2)c1 [Compound I-402]
22 | ≤ 0.4 µM | – | < 0.4 µM | COc1ncc2cnn(C)c2c1NS(=O)(=O)c1cnn(-c2cc(C3(F)COC3)ccn2)c1 [Compound I-124, 1-(4-(3-fluorooxetan-3-yl)pyridin-2-yl)-N-(6-methoxy-1-methyl-1H-pyrazolo[4,3-c]pyridin-7-yl)-1H-pyrazole-4-sulfonamide]
23 | ≤ 0.4 µM | – | < 0.4 µM | CCc1ccc2cnn(C)c2c1NS(=O)(=O)c1cnn(-c2cc(C(F)(F)F)ncn2)c1 [Compound I-19, N-(6-Ethyl-1-Methyl-1H-Indazol-7-yl)-1-(6-(Trifluoromethyl) Pyrimidin-4-yl)-1H-Pyrazole-4-Sulfonamide]
24 | > 2.5 µM | – | < 0.4 µM | CN1CCN(c2ccnc(-n3cc(S(=O)(=O)Nc4cccc5cnn(C)c45)cn3)c2)C1=O [Compound I-322]
25 | > 2.5 µM | – | < 0.4 µM | Cn1ncc2cccc(NS(=O)(=O)c3cnn(-c4cc(C5CC(O)C5)ccn4)c3)c21 (centres unmarked) [Compound I-374, 1-(4-(3-hydroxycyclobutyl)pyridin-2-yl)-N-(1-methyl-1H-indazol-7-yl)-1H-pyrazole-4-sulfonamide]
26 | > 2.5 µM | – | 0.4 to 1 µM | COc1ccc2cnn(C)c2c1NS(=O)(=O)c1cnn(-c2cc([C@@H](C)N3CCCCC3)ccn2)c1 [Compound I-463]
27 | ≤ 0.4 µM | – | < 0.4 µM | COc1ccc2cnn(C)c2c1NS(=O)(=O)c1cnn(-c2cc(Cl)ccn2)c1 [Compound I-54]
28 | > 2.5 µM | – | < 0.4 µM | Cn1ncc2cccc(NS(=O)(=O)c3cnn(-c4cc(C5(C#N)CCC5)ccn4)c3)c21 [Compound I-456]
29 | > 2.5 µM | – | < 0.4 µM | Cn1ncc2cccc(NS(=O)(=O)c3cnn(-c4cc(C5(O)CC(F)(F)C5)ccn4)c3)c21 [Compound I-359]
30 | > 2.5 µM | – | < 0.4 µM | Cc1n[nH]c2cccc(NS(=O)(=O)c3cnn(-c4ccc(C5CC5)cn4)c3)c12 [Compound I-106, 1-(5-cyclopropylpyridin-2-yl)-N-(3-methyl-1H-indazol-4-yl)-1H-pyrazole-4-sulfonamide]
31 | > 2.5 µM | – | < 0.4 µM | COC1(c2ccnc(-n3cc(S(=O)(=O)Nc4cccc5cnn(C)c45)cn3)c2)CCOCC1 [Compound I-131, 1-(4-(4-methoxytetrahydro-2H-pyran-4-yl)pyridin-2-yl)-N-(1-methyl-1H-indazol-7-yl)-1H-pyrazole-4-sulfonamide]
32 | > 2.5 µM | – | < 0.4 µM | COc1ccc2cnn(C)c2c1NS(=O)(=O)c1cnn(-c2cc(N3CC[C@H](F)C3)ccn2)c1 [Compound I-422]
33 | > 2.5 µM | – | < 0.4 µM | CCC(OC)c1ccnc(-n2cc(S(=O)(=O)Nc3cccc4cnn(C)c34)cn2)c1 (centres unmarked) [Compound I-297, 1-{4-[1-methoxypropyl]pyridin-2-yl}-N-(1-methylindazol-7-yl)pyrazole-4-sulfonamide]
34 | ≤ 0.4 µM | – | < 0.4 µM | CCc1ccc2cnn(C)c2c1NS(=O)(=O)c1cnn(-c2ccc(C(F)(F)F)cn2)c1 [Compound I-1, 3N-(6-Ethyl-1-Methyl-1H-Indazol-7-yl)-1-(5-(Trifluoromethyl)Pyridin-2-yl)-1H-Pyrazole-4-Sulfonamide]
